Source: US8741299B2, “Method for treating pathologies associated with hypoxia using MIF inhibitors” (The Feinstein Institute for Medical Research, priority 2011, dated 2014)
Entries after “also recorded” stand apart in the source; their conditions may differ.

What was measured:
[1] = system: Human lung fibroblasts (CCL-210); test: Hypoxia-induced proliferation of human lung fibroblasts (BrdU incorporation, cell counts); assay type: cell-based
Description: Cell culture studies: Human lung fibroblasts (CCL-210) were purchased from American Type Culture Collection (ATCC, Manassas, Va.). Cells were cultured in Eagle Minimum Essential Medium (EMEM) (ATCC, Manassas, Va.) with 10% fetal bovine serum (FBS) at 37′C, 5% CO2. The cells were subcultured using standard procedures and were used for experiment during passages 3 to 10.
(§1) Cell proliferation assessments: 5-bromo-2-deoxyuridine (BrdU) incorporation measured by a commercially available kit (Calbiochem, EMD Chemical Inc., Gibbstown, N.J.) was used to quantify the fibroblast proliferation, BrdU is incorporated into the newly synthesized DNA of replicating cells (during the S phase of the cell cycle). The assay was performed according to the manufacturer's instructions. […] BrdU incorporated in newly synthesized DNA was detected with a BrdU antibody using chemiluminescence for quantification. […]
Hypoxia in vitro: A modular incubator chamber (Billups-Rothenberg Inc., Del Mar, Calif.) was used for the cell hypoxia studies. To induce hypoxia, the chamber was tightly closed and flushed with a gas mixture consisting of 95% nitrogen and 5% CO2 until the desired ambient oxygen concentration of 1% was reached as measured using an oxygen sensor (BioSpherix, Lacona, N.Y.). […]
Cell proliferation, under both normoxic and hypoxic conditions, was then determined using the methods described above.

[2] = system: CCL-210 cells; test: Lactate dehydrogenase release into the medium of treated cells (cytotoxicity); assay type: cell-based, human; conditions: at the concentration used (100 μM elsewhere in the source), data not shown
[3] = system: primary lung fibroblasts (mif-/-); test: Proliferation of primary mif-/- lung fibroblasts in hypoxia with conditioned medium from hypoxic mif+/+ cells; assay type: cell-based, mouse; conditions: 1% oxygen; vs carrier DMSO
Description: Primary lung fibroblasts from MIF knockout (mif−/−) or their counterpart wild type C57BL6 mice (mif+/+) were established by using outgrowth from lung explants (36). Briefly, mouse lungs were removed using aseptic technique, carefully dissected free of connective tissue and fat, and cut into small pieces (<1 mm). These lung tissue pieces were cultured in a dish containing EMEM, 10% FBS, and 1% penicillin/streptomycin, at 37° C., 5% CO2 in air. Medium was changed twice a week. After about two weeks, fibroblasts had reached approximately 80% confluence. The fibroblasts were removed by trypsin and filtered using a sterilized 100-μm nylon cell strainer (Falcon) to remove any remaining tissue pieces. […]
as §1, with “cycle).” for “cycle). The assay was performed according to the manufacturer's instructions.”
To further examine the role of MIF in hypoxia-induced fibroblast proliferation, the ability of primary lung fibroblasts (mif^−/− and mir^+/+) cultured under normoxic and hypoxic conditions for 24 hrs, was assessed. […]

[4] = system: C57BL6 mice; test: Mouse hypoxia model of pulmonary vascular remodeling and hypertension; assay type: in vivo
Source text: Hypoxia in vivo: C57BL6 mice (male, 8˜10 weeks old) were purchased from Taconic Farms Inc. (Hudson, N.Y.). All the animals were housed in a pathogen-free environment, under standard light and dark cycles, with free access to food and water until they were used for the experiments. All experiments involving animals were reviewed and approved by Institutional Animal Care and Use Committee of The Feinstein Institute for Medical Research. An animal hypoxia chamber system (BioSpherix, Lacona, N.Y.) was used for the in vivo studies. […] Mice were randomly divided into 4 groups and treated with normoxia, or hypoxia for 3, 10, or 42 days. At the time of euthanasia, animals were anesthetized with isoflurane and 100% oxygen. A 26 gauge needle connected to a transducer was introduced into the right ventricular trans-diaphragmatically. The right ventricular (RV) pressure was measured and recorded using a computerized hemodynamic recording system (HAEMODYN, Harvard Apparatus, Mass.). After the RV pressure measurement, blood was taken from the RV and plasma was stored in −80° C. for MIF measurement. The mice were then euthanized by exsanguination. The hearts were removed, dissected and weighed. The heart weights were expressed as a ratio of the weight of the right ventricle to the weight of the left ventricle+septum (RV/S+LV). The lung was also collected; the left side was used for measure MIF mRNA expression, and the right side fixed, at inflation, in 4% paraformaldehyde for lung vascular histology study. […] Immediately after sub-cutaneous pump implantation on the dorsum of the animals, the mice were put into hypoxia chamber undergoing 10% normobaric hypoxia for 10 days or 21 days. At the indicated times, the RV pressure, heart weight (RV/S+LV), and vascular changes were determined in each group using the methods described above. Vascular wall thickness: Lung tissues were immunostained using anti α-smooth muscle actin (α-SMA) antibody (Abcam Inc, Cambridge Mass.) to reveal the muscular layer of the vessel wall. External diameter (ED) and internal diameter (ID) of 50 alveolar vessels (with ED of 40 to 100 μm) per animal were determined and recorded, by an independent investigator blinded to the sample's origin. The total wall thickness (WT) was measured as the mean distance between the internal and the external diameter. The percentage wall thickness (WT %) was calculated by the formula: WT %=2×WT/ED×100%. (38).

[5] = system: mouse brain; test: MicroPET 18F-FDG uptake in the brain of hypoxic mice; assay type: in vivo
Source text: MicroPET scanning MicroPET scanning can be conducted using an appropriate system, such as Siemen's Inveon. The Inveon is a dedicated small animal positron emission tomography (PET) scanner housed in the Feinstein Institute for Medical Research. This scanner is an ultra-high resolution tomography that includes a built-in transmission source used for the quantitative assessment of radiotracer binding. The use of ^18FDG is preferred.
Scanning methods: All animals being scanned are housed in the Center for Comparative Physiology, within the Feinstein Institute. Animals receive an intraperitoneal (i.p.) injection of ^18FDG (between 1-2 mCi). […] Significant differences in absolute and region-of-interest to whole-brain relative metabolic glucose uptake are analyzed using student t-tests and repeated measures ANOVA.
Further developing these studies, it is herein disclosed that inhibition of MIF prevented altered 2-deoxy-2-(^18F)fluoro-D-glucose (^18F-FDG) uptake in the brain of hypoxic mice (FIG. 8). […] In this study, a standardized uptake value (SUV) (56) was used, a simple semi-quantitative index, calculated by measuring the activity concentration in a region of interest (ROI) during a short-duration (10 min) static scan acquired 60 min after injection and then normalized for the injected dose or weight of the animal. […]

[6] = system: mice; test: Clock maze task (spatial working memory) in hypoxic mice; assay type: in vivo, mouse; conditions: hypoxia, ISO-92 delivered to the dorsal hippocampus via osmotic pumps, n=4
Description: Clock maze: A navigational test is used to measure spatial working memory, modified from Deacon and Rawlins (2002). The apparatus (termed “clock maze”) is a circular base platform (diameter, 85 cm) surrounded by a clear wall (30 cm high), sealed to the base by aquarium sealant to make it waterproof. Cold water (20° C.±1° C.) is added to a depth of 2 cm, sufficient to wet the underside of the belly of mice. The perimeter wall is pierced by 12 holes, 4 cm in diameter, arranged equidistantly around the circumference so that they are 23 cm apart. The lower edge of each hole is 3 cm above the maze floor, that is, at mouse head level. Eleven of these tubes were sealed with black plugs, flush with the internal pool wall surface; one is open and led to an escape pipe, which is 4 cm in diameter, made of black flexible plastic. Thus, from within the clock maze, the true exit looks similar to the decoys, even to the human eye. […] The animal is placed facing one of the long sides in a semi-random fashion (not more than 3 consecutive times the same way) and the time taken to enter the open tube was recorded by software (Ethovision). […] The latency to reach the target is recorded by software (Ethovision) with a maximum of 60 sec for each trial. […]
The navigational test that measured spatial working memory was modified from Deacon and Rawlins (2002). […]

[7] = 1.8 mg/kg/day s.c. osmotic pump, 10% oxygen, 10 or 21 days

## CC(C)(C)COC(=O)CC1CC(c2ccc(O)c(F)c2)=NO1 (stereo not drawn) [ISO-92]
[1]; CCL-210, 100 μM ISO-92, normoxia
  growth of cells cultured in normoxic conditions: no effect
[1]; CCL-210, 1% oxygen, 24 hrs, vs vehicle DMSO
  hypoxia-induced cell proliferation: inhibited by ISO-92 in a dose-dependent manner; also recorded: able to inhibit hypoxia-driven proliferation; also recorded: inhibited proliferation in a dose-dependent manner
[2]
  cytotoxicity / lactate dehydrogenase release into culture medium: not cytotoxic; also recorded: nor did it cause accumulation of lactate dehydrogenase
[3]
  increased proliferation of mif-/- fibroblasts induced by conditioned medium from hypoxic mif+/+ cells: abrogated; also recorded: inhibitable; also recorded: inhibited
[4]; [7]
  right ventricle hypertrophy (RV/S+LV): significantly reduced
  right ventricular systolic pressure (RVSP), effect in words: significantly reduced
  vascular wall thickness (VascularWT %) / pulmonary vascular remodeling: significantly reduced
[4]; at 21 days hypoxia, normoxia 13.8±2.3, vehicle 20.2±1.4
  right ventricular systolic pressure: 16.8±1.5 mm Hg
[4]; at 21 days hypoxia, relative to vehicle and normoxia
  reduction of right ventricular systolic pressures: approximately 53%
[5]; 10 days 10% hypoxia, ISO-92 via osmotic pump
  hypoxia-induced increase in brain glucose metabolism (18FDG images): blocked completely
[5]; 10 days hypoxia, differences not statistically significant
  semi-quantitative 18F-FDG uptake (SUV) of specific brain regions, median value: lower in each case
[6]
  performance in the clock maze task (working memory): completely normal performance
